Assay results published in PMC6099102, “Effect of the Nature of Donor Atoms on the Thermodynamic, Kinetic and Relaxation Properties of Mn(II) Complexes Formed With Some Trisubstituted 12-Membered Macrocyclic Ligands” (Frontiers in Chemistry, 2018).

Assay: Longitudinal water proton relaxivity (r1p) of the Mn(II) complexes
Assay type: physicochemical
Settings: 0.5 T field strength, 25 °C and pH = 7.4
Experimental: The relaxometric data were collected using a Bruker Minispec MQ20 NMR relaxometer. […] A datapoint plotted on figures represents an average of 5–6 T1 measurements (Figures S3–S9 in Supplementary Material). The data were fitted by using the molar r1p relaxivity value of the MnCl2 ([…] at 0.49 T and 25 °C). The equilibrium constants were calculated using the PSEQUAD program (Zékány and Nagypál, [1985]).
The longitudinal water proton relaxation rates (r1 = 1/T1-1/Tw) were measured at 20 MHz with a Bruker Minispec MQ-20 relaxometer (Bruker Biospin, Germany). Samples were thermostated by using a circulating water bath at 25.0 ± 0.2 °C. The longitudinal relaxation times (T1) were measured by the inversion-recovery method (180° − τ − 90°), averaging 5–6 data points collected for each concentration point obtained from 14 different τ values (τ values ranging between 0 to at least 6 times the expected T1). The relaxivity of the complexes was determined by titrating a nearly 1.0 mM ligand solution with a Mn(II) stock solution at pH = 7.22–7.43 (50 mM HEPES buffer, I = 0.15 M NaCl, 25 °C). Under these conditions, the only Mn(II) ion containing species present in solution is the [Mn(L)], which was supported by the r1 vs. pH profiles. The relaxivity of the complex was determined as the slope of the strait line obtained by plotting 1/T1p values as a function of Mn(II) concentration for samples with [Ligand] > [Mn(II)]. The relaxivity of [Mn(DOTP)]^6− and [Mn(DO3P)]^4− was determined in the pH range of 10.0–11.0 and 8.5–9.3, respectively where mainly the [Mn(DO3P)]^4− and [Mn(DOTP)]^6− complex exists in solution (Figures S4 and S9 in Supplementary Material).
The relaxivity (r1p, mM^−1s^−1) is defined as the longitudinal water proton relaxation rate in a solution containing 1.0 mM concentration of the paramagnetic species. It characterizes the efficiency of a paramagnetic metal chelate to enhance the solvent proton relaxation rate at a given magnetic field (usually 20 MHz) and temperature. The inner-sphere contribution to relaxivity is directly proportional to the number of metal bound water molecules (q), and therefore, relaxivity values may provide some useful information on the hydration state of paramagnetic complexes of similar molecular weights and electronic relaxation times. […] The r1p values of the Mn(II) complexes formed with heptadentate 12-membered macrocyclic ligands were determined at 0.5 T field strength and 25 °C and reported in Table 4 along with some relaxivity data published for the complexes of hexa-, hepta- and octadentate ligands. […] Below these pH ranges the phosphonate moieties undergo protonation, which further increases the relaxivity (2.60–2.90 mM^−1s^−1 values were observed near pH = 7.4, see Supplementary Material). Similar increase in the relaxivity (to 3.20 mM^−1s^−1 at 20 MHz, 37 °C) is observed for the [Mn(DOTA)]^2− complex upon its protonation and formation of the thermodynamically stable diprotonated [Mn(H2DOTA)] complex that exists as a non-hydrated chelate both in solution and in the solid state (Wang and Westmoreland, [2009]). The relaxivity of the diprotonated species at t → 0 time point was determined from the extrapolation of the relaxivity vs. time data collected after acidification of the samples containing the complexes. The X-ray crystallographic structure of [Mn(H2DOTA)] indicates the protonation of two trans carboxylate moieties (e.g., the coordination around the metal ion is similar to that observed in [Mn(trans-DO2A)] as determined by DFT calculations). Thus, the relaxivity of the diprotonated [Mn(H2DOTA)] and [Mn(H2DOTMA)] complexes is expected to be similar to that of [Mn(trans-DO2A)] (when q = 0). The value obtained by us is considerably higher, which highlights the importance of prototropic exchange as a useful tool to improve the relaxivity of the complexes (however, it has to be underlined that the protonation of the complex generally leads to a decrease in kinetic inertness).

Question: With `O=C(CN1CCN(CC(=O)N2CCCCC2)Cc2cccc(n2)CN(CC(=O)N2CCCCC2)CC1)N1CCCCC1.[Mn+2]` [[Mn(PC3AM^Pip)]^2+] as the molecule, how does the r1p read?
Answer: 1.28 mM⁻¹ s⁻¹
